Assay results from patent US10363239B2, “Method for inhibiting growth of cancer cells” (Pain Therapeutics, Inc., priority 2013, dated 2019).

System: mu opiate receptor (MOR)
Experiment: MOR agonist activity using [35S]GTPγS binding assay in striatal membranes
Format: biochemical
Details: Series B; 0.1 μM compound, relative to DAMGO
Outline: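 Striatal membranes (200 μg) were preincubated 5 min at 30 °C in HEPES pH 7.5 with 100 mM NaCl, 1 mM MgCl2 and 0.5 nM [35S]GTPγS, then 5 min more with 0.1–10 μM compound. Gαo was immunoprecipitated and bound radioactivity counted by scintillation.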

Row | SMILES | % DAMGO (0.1 μM)
1 | COc1ccccc1CCC(=O)CC1c2c(cc3c(c2OC)OCO3)CC[N+]1(C)C (stereo not drawn) [Compound B0045] | 82.6%
2 | COc1c2c(cc3c1C(CC(=O)CCc1ccc(Cl)cc1)[N+](C)(C)CC3)OCO2 (stereo not drawn) [Compound B0017] | 58.9%

Same assay, conditions: Series B; 0.1 μM compound; [35S]GTPγS binding to Gαo, striatal membranes

Row | SMILES | MOR agonist activity, percent [35S]GTPγS binding at the stated compound concentration
3 | COc1ccccc1CCC(=O)CC1c2c(cc3c(c2OC)OCO3)CC[N+]1(C)C (stereo not drawn) [Compound B0045] | 129.3%
4 | COc1c2c(cc3c1C(CC(=O)CCc1ccc(Cl)cc1)[N+](C)(C)CC3)OCO2 (stereo not drawn) [Compound B0017] | 99.6%

Same assay, conditions: Series B; 1 μM compound + 1 μM β-FNA

Row | SMILES | MOR agonist activity, percent [35S]GTPγS binding at the stated compound concentration
5 | COc1ccccc1CCC(=O)CC1c2c(cc3c(c2OC)OCO3)CC[N+]1(C)C (stereo not drawn) [Compound B0045] | 83.8%
6 | COc1c2c(cc3c1C(CC(=O)CCc1ccc(Cl)cc1)[N+](C)(C)CC3)OCO2 (stereo not drawn) [Compound B0017] | 49.6%

Same assay, conditions: Series B; 1 μM compound + β-FNA, relative to DAMGO + BFNA

Row | SMILES | % DAMGO + BFNA
7 | COc1ccccc1CCC(=O)CC1c2c(cc3c(c2OC)OCO3)CC[N+]1(C)C (stereo not drawn) [Compound B0045] | 257.1%
8 | COc1c2c(cc3c1C(CC(=O)CCc1ccc(Cl)cc1)[N+](C)(C)CC3)OCO2 (stereo not drawn) [Compound B0017] | 75.2%

Same assay, conditions: Series B; 1 μM compound, relative to DAMGO

Row | SMILES | % DAMGO (1 μM)
9 | COc1ccccc1CCC(=O)CC1c2c(cc3c(c2OC)OCO3)CC[N+]1(C)C (stereo not drawn) [Compound B0045] | 83.4%
10 | COc1c2c(cc3c1C(CC(=O)CCc1ccc(Cl)cc1)[N+](C)(C)CC3)OCO2 (stereo not drawn) [Compound B0017] | 45.6%

Same assay, conditions: Series B; 1 μM compound; [35S]GTPγS binding to Gαo, striatal membranes

Row | SMILES | MOR agonist activity, percent [35S]GTPγS binding at the stated compound concentration
11 | COc1ccccc1CCC(=O)CC1c2c(cc3c(c2OC)OCO3)CC[N+]1(C)C (stereo not drawn) [Compound B0045] | 193.1%
12 | COc1c2c(cc3c1C(CC(=O)CCc1ccc(Cl)cc1)[N+](C)(C)CC3)OCO2 (stereo not drawn) [Compound B0017] | 122.0%

Same assay, conditions: Series C-1; 0.1 μM compound, relative to DAMGO

Row | SMILES | % DAMGO (0.1 μM)
13 | O=S(=O)(c1cccc(OC(F)(F)F)c1)N1CCC2(CC1)OCCN2S(=O)(=O)c1cccc(OC(F)(F)F)c1 [Compound C0005] | 105.4%
14 | CC(=O)c1ccc(C(=O)N2CCC3(CC2)OCCN3C(=O)c2ccc(C(C)=O)cc2)cc1 [Compound C0054] | 47.0%
15 | CC(O)c1ccc(S(=O)(=O)N2CCC3(CC2)OCCN3S(=O)(=O)c2ccc(C(C)O)cc2)cc1 (stereo not drawn) [Compound C0051] | 65.1%

Same assay, conditions: Series C-1; 0.1 μM compound; [35S]GTPγS binding to Gαo, striatal membranes

Row | SMILES | Concentration of FLNA-Binding Compound as Agonist 0.1 μM
16 | O=S(=O)(c1cccc(OC(F)(F)F)c1)N1CCC2(CC1)OCCN2S(=O)(=O)c1cccc(OC(F)(F)F)c1 [Compound C0005] | 180.4%
17 | CC(=O)c1ccc(C(=O)N2CCC3(CC2)OCCN3C(=O)c2ccc(C(C)=O)cc2)cc1 [Compound C0054] | 68.2%
18 | CC(O)c1ccc(S(=O)(=O)N2CCC3(CC2)OCCN3S(=O)(=O)c2ccc(C(C)O)cc2)cc1 (stereo not drawn) [Compound C0051] | 94.4%

Same assay, conditions: Series C-1; 1 μM compound + 1 μM β-FNA

Row | SMILES | Concentration of FLNA-Binding Compound as Agonist 1 μM + BFNA
19 | O=S(=O)(c1cccc(OC(F)(F)F)c1)N1CCC2(CC1)OCCN2S(=O)(=O)c1cccc(OC(F)(F)F)c1 [Compound C0005] | 166.4%
20 | CC(=O)c1ccc(C(=O)N2CCC3(CC2)OCCN3C(=O)c2ccc(C(C)=O)cc2)cc1 [Compound C0054] | 43.5%
21 | CC(O)c1ccc(S(=O)(=O)N2CCC3(CC2)OCCN3S(=O)(=O)c2ccc(C(C)O)cc2)cc1 (stereo not drawn) [Compound C0051] | 55.9%

Same assay, conditions: Series C-1; 1 μM compound + β-FNA, relative to DAMGO + BFNA

Row | SMILES | % DAMGO + BFNA
22 | O=S(=O)(c1cccc(OC(F)(F)F)c1)N1CCC2(CC1)OCCN2S(=O)(=O)c1cccc(OC(F)(F)F)c1 [Compound C0005] | 319.4%
23 | CC(=O)c1ccc(C(=O)N2CCC3(CC2)OCCN3C(=O)c2ccc(C(C)=O)cc2)cc1 [Compound C0054] | 98.9%
24 | CC(O)c1ccc(S(=O)(=O)N2CCC3(CC2)OCCN3S(=O)(=O)c2ccc(C(C)O)cc2)cc1 (stereo not drawn) [Compound C0051] | 127.0%

Same assay, conditions: Series C-1; 1 μM compound, relative to DAMGO

Row | SMILES | % DAMGO (1 μM)
25 | O=S(=O)(c1cccc(OC(F)(F)F)c1)N1CCC2(CC1)OCCN2S(=O)(=O)c1cccc(OC(F)(F)F)c1 [Compound C0005] | 85.1%
26 | CC(=O)c1ccc(C(=O)N2CCC3(CC2)OCCN3C(=O)c2ccc(C(C)=O)cc2)cc1 [Compound C0054] | 54.5%
27 | CC(O)c1ccc(S(=O)(=O)N2CCC3(CC2)OCCN3S(=O)(=O)c2ccc(C(C)O)cc2)cc1 (stereo not drawn) [Compound C0051] | 73.1%

Same assay, conditions: Series C-1; 1 μM compound; [35S]GTPγS binding to Gαo, striatal membranes

Row | SMILES | Concentration of FLNA-Binding Compound as Agonist 1 μM
28 | O=S(=O)(c1cccc(OC(F)(F)F)c1)N1CCC2(CC1)OCCN2S(=O)(=O)c1cccc(OC(F)(F)F)c1 [Compound C0005] | 227.2%
29 | CC(=O)c1ccc(C(=O)N2CCC3(CC2)OCCN3C(=O)c2ccc(C(C)=O)cc2)cc1 [Compound C0054] | 127.0%
30 | CC(O)c1ccc(S(=O)(=O)N2CCC3(CC2)OCCN3S(=O)(=O)c2ccc(C(C)O)cc2)cc1 (stereo not drawn) [Compound C0051] | 170.4%

Same assay, conditions: Series C-2; 0.1 μM compound, relative to DAMGO

Row | SMILES | % DAMGO (0.1 μM)
31 | CC(=O)c1ccc(S(=O)(=O)N2CC(=O)NC23CCNCC3)cc1 [Compound C0086M] | 117.5%
32 | COc1ccc(S(=O)(=O)N2CCOC23CCN(C(C)C)CC3)cc1 [Compound C0133M] | 83.2%

Same assay, conditions: Series C-2; 0.1 μM compound; [35S]GTPγS binding to Gαo, striatal membranes

Row | SMILES | MOR agonist activity, percent [35S]GTPγS binding at the stated compound concentration
33 | CC(=O)c1ccc(S(=O)(=O)N2CC(=O)NC23CCNCC3)cc1 [Compound C0086M] | 206.8%
34 | COc1ccc(S(=O)(=O)N2CCOC23CCN(C(C)C)CC3)cc1 [Compound C0133M] | 139.4%

Same assay, conditions: Series C-2; 1 μM compound + 1 μM β-FNA

Row | SMILES | MOR agonist activity, percent [35S]GTPγS binding at the stated compound concentration
35 | CC(=O)c1ccc(S(=O)(=O)N2CC(=O)NC23CCNCC3)cc1 [Compound C0086M] | 152.3%
36 | COc1ccc(S(=O)(=O)N2CCOC23CCN(C(C)C)CC3)cc1 [Compound C0133M] | 72.4%

Same assay, conditions: Series C-2; 1 μM compound + β-FNA, relative to DAMGO + BFNA

Row | SMILES | % DAMGO + BFNA
37 | CC(=O)c1ccc(S(=O)(=O)N2CC(=O)NC23CCNCC3)cc1 [Compound C0086M] | 692.3%
38 | COc1ccc(S(=O)(=O)N2CCOC23CCN(C(C)C)CC3)cc1 [Compound C0133M] | 152.4%

Same assay, conditions: Series C-2; 1 μM compound, relative to DAMGO

Row | SMILES | % DAMGO (1 μM)
39 | CC(=O)c1ccc(S(=O)(=O)N2CC(=O)NC23CCNCC3)cc1 [Compound C0086M] | 104.9%
40 | COc1ccc(S(=O)(=O)N2CCOC23CCN(C(C)C)CC3)cc1 [Compound C0133M] | 96.6%

Same assay, conditions: Series C-2; 1 μM compound; [35S]GTPγS binding to Gαo, striatal membranes

Row | SMILES | MOR agonist activity, percent [35S]GTPγS binding at the stated compound concentration
41 | CC(=O)c1ccc(S(=O)(=O)N2CC(=O)NC23CCNCC3)cc1 [Compound C0086M] | 265.3%
42 | COc1ccc(S(=O)(=O)N2CCOC23CCN(C(C)C)CC3)cc1 [Compound C0133M] | 214.8%

Target: FLNA pentapeptide of SEQ ID NO: 1 (Bn-VAKGL) (Homo sapiens, UniProt P21333)
Experiment: FITC-NLX-based FLNA screening assay (inhibition of FITC-naloxone binding to Bn-VAKGL on streptavidin plates)
Details: FLNA-binding compound 0.01 μM; 10 nM FITC-NLX; read-out: Percent Binding Inhibition

Row | SMILES | inhibition at 0.01 µM
43 | CC(=O)c1ccc(C(=O)N2CCC3(CC2)OCCN3C(=O)c2ccc(C(C)=O)cc2)cc1 [Compound C0054] | 32.9%
44 | COc1ccc(S(=O)(=O)N2CCOC23CCN(C(C)C)CC3)cc1 [Compound C0133M] | 47.8%

Same assay, conditions: FLNA-binding compound 0.1 μM; 10 nM FITC-NLX; read-out: Percent Binding Inhibition

Row | SMILES | inhibition at 0.1 µM
45 | CC(=O)c1ccc(C(=O)N2CCC3(CC2)OCCN3C(=O)c2ccc(C(C)=O)cc2)cc1 [Compound C0054] | 39.4%
46 | COc1ccc(S(=O)(=O)N2CCOC23CCN(C(C)C)CC3)cc1 [Compound C0133M] | 54.9%

Same assay, conditions: FLNA-binding compound 1 μM; 10 nM FITC-NLX; read-out: Percent Binding Inhibition

Row | SMILES | inhibition at 1 µM
47 | CC(=O)c1ccc(C(=O)N2CCC3(CC2)OCCN3C(=O)c2ccc(C(C)=O)cc2)cc1 [Compound C0054] | 43.3%
48 | COc1ccc(S(=O)(=O)N2CCOC23CCN(C(C)C)CC3)cc1 [Compound C0133M] | 58.5%

Same assay, conditions: read-out: Percent Binding Inhibition, FLNA-binding compound 0.01 μM; 10 nM FITC-NLX

Row | SMILES | inhibition at 0.01 µM
49 | O=S(=O)(c1cccc(OC(F)(F)F)c1)N1CCC2(CC1)OCCN2S(=O)(=O)c1cccc(OC(F)(F)F)c1 [Compound C0005] | 35.2%
50 | COc1ccccc1CCC(=O)CC1c2c(cc3c(c2OC)OCO3)CC[N+]1(C)C (stereo not drawn) [Compound B0045] | 63.2%
51 | CC(O)c1ccc(S(=O)(=O)N2CCC3(CC2)OCCN3S(=O)(=O)c2ccc(C(C)O)cc2)cc1 (stereo not drawn) [Compound C0051] | 27%
52 | COc1c2c(cc3c1C(CC(=O)CCc1ccc(Cl)cc1)[N+](C)(C)CC3)OCO2 (stereo not drawn) [Compound B0017] | 28.3%
53 | CC(=O)c1ccc(S(=O)(=O)N2CC(=O)NC23CCNCC3)cc1 [Compound C0086M] | 37.9%

Same assay, conditions: read-out: Percent Binding Inhibition, FLNA-binding compound 0.1 μM; 10 nM FITC-NLX

Row | SMILES | inhibition at 0.1 µM
54 | O=S(=O)(c1cccc(OC(F)(F)F)c1)N1CCC2(CC1)OCCN2S(=O)(=O)c1cccc(OC(F)(F)F)c1 [Compound C0005] | 44.5%
55 | COc1ccccc1CCC(=O)CC1c2c(cc3c(c2OC)OCO3)CC[N+]1(C)C (stereo not drawn) [Compound B0045] | 68.2%
56 | CC(O)c1ccc(S(=O)(=O)N2CCC3(CC2)OCCN3S(=O)(=O)c2ccc(C(C)O)cc2)cc1 (stereo not drawn) [Compound C0051] | 30.4%
57 | COc1c2c(cc3c1C(CC(=O)CCc1ccc(Cl)cc1)[N+](C)(C)CC3)OCO2 (stereo not drawn) [Compound B0017] | 36.6%
58 | CC(=O)c1ccc(S(=O)(=O)N2CC(=O)NC23CCNCC3)cc1 [Compound C0086M] | 48.1%

Same assay, conditions: read-out: Percent Binding Inhibition, FLNA-binding compound 1 μM; 10 nM FITC-NLX

Row | SMILES | inhibition at 1 µM
59 | O=S(=O)(c1cccc(OC(F)(F)F)c1)N1CCC2(CC1)OCCN2S(=O)(=O)c1cccc(OC(F)(F)F)c1 [Compound C0005] | 51.5%
60 | COc1ccccc1CCC(=O)CC1c2c(cc3c(c2OC)OCO3)CC[N+]1(C)C (stereo not drawn) [Compound B0045] | 73.9%
61 | CC(O)c1ccc(S(=O)(=O)N2CCC3(CC2)OCCN3S(=O)(=O)c2ccc(C(C)O)cc2)cc1 (stereo not drawn) [Compound C0051] | 36.4%
62 | COc1c2c(cc3c1C(CC(=O)CCc1ccc(Cl)cc1)[N+](C)(C)CC3)OCO2 (stereo not drawn) [Compound B0017] | 44.6%
63 | CC(=O)c1ccc(S(=O)(=O)N2CC(=O)NC23CCNCC3)cc1 [Compound C0086M] | 53.4%
